Reference: patent publication US6962912B2, “Substituted pyrazolo[4,3-e]diazepines, pharmaceutical compositions containing them, use as medicinal products and processes for preparing them” (Warner-Lambert LLC, priority 2000, dated 2005)

Tests used:
PDE4 = experiment: Inhibition of PDE4 (cytosolic enzyme preparation from U937 line), compared with rolipram; format: biochemical, human; settings: PDE4 enzyme preparation obtained from the U937 line

| SMILES | IC50 (PDE4) [nM] | melting point [°C] |
| --- | --- | --- |
| CCn1nc(C)c2c1C(=O)NCC(c1cccc(O)c1)=N2 [Example 92, 1-Ethyl-5-(3-hydroxyphenyl)-3-methyl-6,7-dihydro-1H-pyrazolo[4,3-e][1,4]diazepin-8-one] | 92 | 204 |
| CCCn1nc(C(C)C)c2c1C(=S)NCC(c1ccc(C)cc1)=N2 [Example 63, 3-Isopropyl-1-propyl-5-p-tolyl-6,7-dihydro-1H-pyrazolo[4,3-e][1,4]diazepin-8-thione] | 5 | 162.9 |
| CCn1nc(C(C)C)c2c1C(=S)NCC(C(C)(C)C)=N2 [Example 67, 5-tert-Butyl-1-ethyl-3-isopropyl-6,7-dihydro-1H-pyrazolo[4,3-e][1,4]diazepin-8-thione] | 1 | 218 |
| CCn1nc(C(C)C)c2c1C(=O)NCC(c1ccc(O)cc1)=N2 [Example 94, 1-Ethyl-5-(4-hydroxyphenyl)-3-isopropyl-6,7-dihydro-1H-pyrazolo[4,3-e][1,4]diazepin-8-one] | 2.1 | 230 |
| CCn1nc(C)c2c1C(=O)NCC(c1ccccn1)=N2 [Example 54, 1-Ethyl-3-methyl-5-pyrid-2-yl-6,7-dihydro-1H-pyrazolo[4,3-e][1,4]diazepin-8-one] | 240 | 153 |
| CCCn1nc(C(C)C)c2c1C(=O)NCC(c1ccc(OC)cc1)=N2 [Example 85, 3-Isopropyl-5-(4-methoxyphenyl)-1-propyl-6,7-dihydro-1H-pyrazolo[4,3-e][1,4]diazepin-8-one] | 200 | 142 |
| CCn1nc(C)c2c1C(=O)NCC(c1cccnc1)=N2 [Example 53, 1-Ethyl-3-methyl-5-pyrid-3-yl-6,7-dihydro-1H-pyrazolo[4,3-e][1,4]diazepin-8-one] | 260 | 178 |
| CCn1nc(C)c2c1C(=O)NCC(c1cc(OC)c(OC)c(OC)c1)=N2 [Example 91, 1-Ethyl-3-methyl-5-(3,4,5-trimethoxyphenyl)-6,7-dihydro-1H-pyrazolo[4,3-e][1,4]diazepin-8-one] | 900 | 208 |
| CCCn1nc(C(C)C)c2c1C(=S)NCC(C(C)(C)C)=N2 [Example 65, 5-tert-Butyl-3-isopropyl-1-propyl-6,7-dihydro-1H-pyrazolo[4,3-e][1,4]diazepin-8-thione] | 1.5 | 165 |
| CCn1nc(C)c2c1C(=NC#N)NCC(c1ccc(O)cc1)=N2 [Example 88, 1-Ethyl-3-methyl-5-(4-hydroxyphenyl)-6,7-dihydro-1H-pyrazolo[4,3-e][1,4]diazepin-8-ylidenecyanamide] | 2.1 | 300 |
| CCn1nc(C(C)C)c2c1C(=S)NCC(c1ccc(C)cc1)=N2 [Example 66, 1-Ethyl-3-isopropyl-5-p-tolyl-6,7-dihydro-1H-pyrazolo[4,3-e][1,4]diazepin-8-thione] | 0.63 | 178 |
| CCCn1nc(C(C)(C)C)c2c1C(=S)NCC(C(C)(C)C)=N2 [Example 64, 3,5-Di-tert-butyl-1-propyl-6,7-dihydro-1H-pyrazolo[4,3-e][1,4]diazepin-8-thione] | 4.6 | 205 |
| CCn1nc(C)c2c1C(=O)NCC(c1ccccc1O)=N2 [Example 93, 1-Ethyl-5-(2-hydroxyphenyl)-3-methyl-6,7-dihydro-1H-pyrazolo[4,3-e][1,4]diazepin-8-one] | 7.4 | 220 |
| CCCn1nc(C)c2c1C(=O)NCC(c1ccc(N)cc1)=N2 [Example 29, 5-(4-Aminophenyl)-3-methyl-1-propyl-6,7-dihydro-1H-pyrazolo[4,3-e][1,4]diazepin-8-one] | 330 | 225 |
| CCn1nc(C)c2c1C(=O)NCC(c1ccc3ccccc3c1)=N2 [Example 8, 1-Ethyl-3-methyl-5-naphth-2-yl-6,7-dihydro-1H-pyrazolo[4,3-e][1,4]diazepin-8-one] | 210 | 193 |
| CCn1nc(C)c2c1C(=O)NCC(c1ccccc1OC)=N2 [Example 20, 1-Ethyl-5-(2-methoxyphenyl)-3-methyl-6,7-dihydro-1H-pyrazolo[4,3-e][1,4]diazepin-8-one] | 99 | 214 |
| CCn1nc(C(C)C)c2c1C(=NC#N)NCC(c1ccc(C)cc1)=N2 [Example 81, 1-Ethyl-3-isopropyl-5-p-tolyl-6,7-dihydro-1H-pyrazolo-[4,3-e][1,4]diazepin-8-ylidenecyanamide] | 0.54 | 245 |
| CCn1nc(C(C)(C)C)c2c1C(=O)NCC(c1ccc(OC)cc1)=N2 [Example 86, 3-tert-Butyl-1-ethyl-5-(4-methoxyphenyl)-6,7-dihydro-1H-pyrazolo[4,3-e][1,4]diazepin-8-one] | 310 | 180 |
| CCn1nc(C)c2c1C(=O)NCC(c1ccc(F)cc1)=N2 [Example 13, 1-Ethyl-5-(4-fluorophenyl)-3-methyl-6,7-dihydro-1H-pyrazolo[4,3-e][1,4]diazepin-8-one] | 130 | 174 |
| CCC(C)c1nn(CC)c2c1N=C(c1ccc(OC)cc1)CNC2=O (racemic) [Example 89, (±)3-sec-Butyl-1-ethyl-5-(4-methoxyphenyl)-6,7-dihydro-1H-pyrazolo[4,3-e][1,4]diazepin-8-one] | 33 | 50 |
| CCn1nc(C)c2c1C(=O)NCC(c1sccc1Cl)=N2 [Example 9, 5-(3-Chlorothien-2-yl)-1-ethyl-3-methyl-6,7-dihydro-1H-pyrazolo[4,3-e][1,4]diazepin-8-one] | 150 | 213 |
| CCCn1nc(C(C)(C)C)c2c1C(=O)NCC(c1ccc(OC)cc1)=N2 [Example 87, 3-tert-Butyl-5-(4-methoxyphenyl)-1-propyl-6,7-dihydro-1H-pyrazolo[4,3-e][1,4]diazepin-8-one] | 41 | 167 |
| CCCCc1nn(CC)c2c1N=C(c1ccccc1)CNC2=S [Example 52, 3-Butyl-1-ethyl-5-phenyl-6,7-dihydro-1H-pyrazolo[4,3-e][1,4]diazepin-8-thione] | 0.65 | 151.5 |
| CCn1nc(C(C)C)c2c1C(=O)NCC(c1ccc(OC)cc1)=N2 [Example 82, 1-Ethyl-3-isopropyl-5-(4-methoxyphenyl)-6,7-dihydro-1H-pyrazolo[4,3-e][1,4]diazepin-8-one] | 62 | 150 |
| CCn1nc(C(C)(C)C)c2c1C(=NC#N)NCC(c1ccccc1)=N2 [Example 57, 3-tert-Butyl-1-ethyl-5-phenyl-6,7-dihydro-1H-pyrazolo[4,3-e][1,4]diazepin-8-ylidene-cyanamide] | 0.13 | 250 |
